The text below walks through data of patent publication US12421235B2, “Bridged tricyclic carbamoylpyridone compounds and uses thereof” (Gilead Sciences, Inc., priority 2020, dated 2025).

pEC50: −log10 of the molar value. Where two headings read alike, the source gives them in different places.

Data set [1] is described as follows: Cytotoxicity assay in MT-4 cells. It counts as cell-based. The conditions noted are these: human, uninfected MT-4 cells, Cell Titer Glo. The method, then: (§1) Compounds were tested in a high-throughput 384-well assay format for their ability to inhibit the replication of HIV-1 (IIIB) in MT-4 cells. Compounds were serially diluted (1:3) in DMSO on 384-well polypropylene plates and further diluted 200-fold into complete RPMI media (10% FBS, 1% P/S) using the Biotek Micro Flow and Labcyte ECHO acoustic dispenser. Each plate contained up to 8 test compounds, with negative (No Drug Control) and 5 μM AZT positive controls. MT-4 cells were pre-infected with 10 μL of either RPMI (mock-infected) or a fresh 1:250 dilution of HIV-1 IIIB concentrated virus stock. Infected and uninfected MT-4 cells were further diluted in complete RPMI media and added to each plate using a Micro Flow dispenser. After 5 days incubation in a humidified and temperature controlled incubator (37° C.), Cell Titer Glo (Promega) was added to the assay plates and chemiluminescence read using an Envision plate-reader. EC50 values were defined as the compound concentration that causes a 50% decrease in luminescence signal, and were calculated using a sigmoidal dose-response model to generate curve fits. Cytotoxicity Assay in MT-4 Cells Assays were performed as above except uninfected MT-4 cells were added to each well containing test compound. In addition, 10 μM puromycin was added to the last column of each assay plate to assess a base level of cytotoxicity.
A general note: In ATP-based viability assays light output follows the ATP content of the culture.

Data set [2] relates to pLai RLuc reporter virus in MT-4 cells. Kind of data set: HIV MT-4 serum shift antiviral reporter assay. The class given is cell-based. The conditions noted are these: Human immunodeficiency virus 1, MT4, 72 h, read-out: RLUC CCM. The method, then: Example 48: HIV MT-4 Serum Shift Antiviral Reporter Assay
To quantify the amount of protein binding to human serum, compounds were serially diluted (1:3) in DMSO and acoustically transferred onto 384-well assay plates via a Labcyte ECHO robot. Each plate contained up to 8 test compounds, including negative and positive controls, (DMSO, 5 μM AZT respectively). Assay plates were prepared in duplicate, and tested in either CCM (cell culture media) or HS/CCM (human serum/cell culture media). MT-4 cells were first pre-infected with pLai RLuc reporter virus for 2 h at 37° C., then further diluted in either CCM (RPMI media, 10% FBS, 1% P/S) or HS/CCM (RPMI media, 10% FBS, 50% HS, 1% P/S), and subsequently added to each plate using a Biotek Micro Flow dispenser. After a 72-h incubation in a humidified and temperature controlled incubator (37° C.), Renilla Glo (Promega) was added to all assay plates and chemiluminescence read using an Envision plate-reader. EC50 values were defined as the compound concentration that causes a 50% decrease in luminescence signal, and were calculated using a sigmoidal dose-response model to generate curve fits. To determine the amount of protein binding, EC50 fold shifts (or EC50 shifts) were calculated by dividing EC50 (HS/CCM)/EC50 (CCM). […]

A short description of data set [3]: High throughput microsomal stability assay (human liver microsomes). It counts as in vitro ADME. The note with it: for HLM stability: human liver microsomes, 1 uM compound, NADPH + UDPGA cofactors, 37 C. The method, then:
Example 49: High Throughput Microsomal Stability Assay
Metabolic stability of compounds was assessed using Human, or Rat Liver Microsomal assays (Corning). In this assay, 10 nL compounds at concentration of 1 mM in 100% DMSO were dispensed into 384-well polypropylene plates using the Echo 550 acoustic liquid dispenser (Labcyte®). Each plate contained 384 wells with a single test compound in each well.
A solution of human (Corning® Gentest™ Human Mixed Pooled Microsomes), or rat (Corning® Gentest™ Rat [Sprague-Dawley] Pooled Liver Microsomes) liver microsomes at 2 mg/ml in 100 mM K2HPO4/KH2PO4 pH 7.4 with Alamethicin from Trichoderma viride (Sigma-Aldrich) 0.0225 mg/ml were incubated on ice for 15 minutes. 5 uL of this solution was added to individual wells following 15 minute incubation at room temperature; and supplemented with 5 uL NADPH Regenerating Solution of cofactors (Corning® Gentest™ UGT Reaction Mix) containing 100 mM K2HPO4/KH2PO4 pH 7.4, 2.6 mM NADP+, 6.6 mM glucose-6-phosphate, 6.6 mM MgCl2, 0.8 U/mL glucose-6-phosphate dehydrogenase, 0.1 mM Sodium Citrate, 6.8 mM uridine diphosphate-glucuronic acid. Final concentration of analyte compounds at the beginning of the reaction was 1 uM. The reactions were incubated at 37° C. and time points of 0, 5, 15, 30, 40, 50, 60, and 70 minutes were collected for further analysis. Background data were collected using reactions without analyte compounds.
Upon collection of the reaction time points, samples were quenched with 30 uL of a solution of 72% acetonitrile, 8% methanol, 0.1% formic acid, 19.9% water, and internal standard (IS). Reaction plates were span in a centrifuge at speed of 4,000 rcf for 30 minutes and 4° C., following a dilution of the 10 uL quenched reaction into 40 uL de-ionized water, yielding assay plates.
Assay plates were analyzed using solid-state extraction coupled with quadrupole time-of-flight mass spectrometer, using Agilent QToF 6530 RapidFire 360 system, with C4 type A solid state cartridges. Analysis was performed in either positive or negative ionization modes. Mobile phases contained 0.1% formic acid in water for loading analytes onto solid state extraction cartridges, and 0.1% formic acid in acetonitrile for elution into mass spectrometer in positive ionization mode, or 0.1% acetic acid in water for loading and 0.1% acetic acid in acetonitrile for extraction in negative ionization mode. Peak-area ratios of integrated counts for individual compounds to IS were plotted as semi-logarithmic chart of log vs time. Initial, linear portion of decay was fitted to a linear regression equation to derive half time of a compound decay.
Pharmacological parameters for an analyte compound metabolism were calculated using the following equations: […]
Where. Calculation of In Vitro Intrinsic Clearance
Concentration refers to the protein concentration (mg/mL) in the reaction.
Calculation of In Vivo Intrinsic Clearance
This scales the in vitro intrinsic clearance up to the value that would be predicted for the entire mass of liver tissue (but with no restriction by blood flow). The value depends upon the size of the liver (species-dependent) and the yield of microsomal protein as appropriate (assumed to be species-independent).
Calculation of Predicted Clearance
Hepatic clearance will depend upon the inter-relationship of intrinsic clearance and hepatic blood flow and can be predicted from in vitro data using a variety of approaches.
Calculation of Hepatic Extraction
This is simply the predicted clearance expressed as a proportion of hepatic blood flow. E=CL/QH*100%
Intrinsic clearance of the instant compounds, as well as for reference compounds A-F, were calculated following the procedure above.

The subject of data set [4] is HIV-1 (IIIB) in MT-4 cells. Kind of data set: HIV MT-4 antiviral assay. It counts as cell-based. The note with it: Human immunodeficiency virus 1, MT4, 120 h, 5 days, Cell Titer Glo. The protocol: Example 47: HIV MT-4 Antiviral and Cytotoxicity Assay
Antiviral Assay in MT-4 Cells
as §1, with “fits.” for “fits. Cytotoxicity Assay in MT-4 Cells Assays were performed as above except uninfected MT-4 cells were added to each well containing test compound. In addition, 10 μM puromycin was added to the last column of each assay plate to assess a base level of cytotoxicity.”

Broadly, the CC50 is the concentration that lowers cell viability or growth by half. The compound `C[C@H]1C=C[C@](C)(O)[C@H]2CN1C(=O)c1c(O)c(=O)c(C(=O)NCc3ccc(F)cc3F)cn12` [Example 17, (1R,10S,13S)—N-[(2,4-difluorophenyl)methyl]-6,13-dihydroxy-10,13-dimethyl-5,8-dioxo-2,9-diazatricyclo[7.4.1.02,7]tetradeca-3,6,11-triene-4-carboxamide] returned a CC50 at 5 days in data set [1] of 31400 nM. Also, the pEC50 in data set [2] was 8.88; in data set [4], 8.52. In addition, the HLM stability in data set [3] was found to be 2.83 mL/min/kg.

As for `CC[C@]1(O)CC[C@H](C)N2C[C@H]1n1cc(C(=O)NCc3c(F)cc(F)cc3F)c(=O)c(O)c1C2=O` [Example 28, (3S,6S,7R)-6-ethyl-6,12-dihydroxy-3-methyl-1,11-dioxo-N-(2,4,6-trifluorobenzyl)-1,4,5,6,7,11-hexahydro-3H-2,7-methanopyrido[1,2-a][1,4]diazonine-10-carboxamide], half-maximal cytotoxicity in data set [1] (CC50 at 5 days) was put at 24400 nM. The results for the pEC50 in data set [2] and in data set [4] were 9.02 and 8.39, respectively. Also, in data set [3], the HLM stability turned out to be 5.67 mL/min/kg.

Consider `CO[C@H]1CC[C@@H](C)N2C[C@H]1n1cc(C(=O)NCc3ccc(F)cc3F)c(=O)c(O)c1C2=O` [Example 42, (3R,6S,7R)—N-(2,4-difluorobenzyl)-12-hydroxy-6-methoxy-3-methyl-1,11-dioxo-1,4,5,6,7,11-hexahydro-3H-2,7-methanopyrido[1,2-a][1,4]diazonine-10-carboxamide], for which the CC50 at 5 days in data set [1] turned out to be 50000 nM. Besides, the pEC50 was 9.21 in data set [2] and 8.72 in data set [4]. Moreover, the HLM stability in data set [3] was 9.67 mL/min/kg.

In turn, `CO[C@@H]1C[C@@H](F)[C@H](C)N2C[C@H]1n1cc(C(=O)NCc3c(F)cc(F)cc3F)c(=O)c(O)c1C2=O` (single isomer, unassigned) [Example 38] registered a CC50 at 5 days in data set [1] of 25500 nM. Also, the pEC50 in data set [2] was 9.47; in data set [4], 8.74. Moreover, the HLM stability in data set [3] came to 3.17 mL/min/kg.

Consider `C[C@H]1CC[C@H](O)[C@H]2CN1C(=O)c1c(O)c(=O)c(C(=O)NCc3c(F)cc(F)cc3F)cn12` [Example 2, (3S,6S,7R)-6,12-dihydroxy-3-methyl-1,11-dioxo-N-(2,4,6-trifluorobenzyl)-1,4,5,6,7,11-hexahydro-3H-2,7-methanopyrido[1,2-a][1,4]diazonine-10-carboxamide], for which the CC50 at 5 days in data set [1] came out at 50000 nM. The pEC50 in data set [2] is 9.28; in data set [4], 8.74. Further, the HLM stability in data set [3] amounted to 2.5 mL/min/kg.

As for `CO[C@@H]1C=C[C@H](C)N2C[C@H]1n1cc(C(=O)NCc3c(F)cc(F)cc3F)c(=O)c(O)c1C2=O` [Example 4, (3S,6R,7R)-12-hydroxy-6-methoxy-3-methyl-1,11-dioxo-N-(2,4,6-trifluorobenzyl)-1,6,7,11-tetrahydro-3H-2,7-methanopyrido[1,2-a][1,4]diazonine-10-carboxamide], the CC50 at 5 days in data set [1] was determined as 11200 nM. In addition, the pEC50 in data set [2] was 9.47; in data set [4], 8.96. In data set [3], the HLM stability stood at 2.33 mL/min/kg. Besides, the “MS Cl improvement” value in data set [3] (relative to compound C) was 3.6 times relative to compound C.

`CO[C@H]1C=C[C@H](C)N2C[C@H]1n1cc(C(=O)NCc3ccc(F)cc3F)c(=O)c(O)c1C2=O` [Example 19, (3S,6S,7R)—N-(2,4-difluorobenzyl)-12-hydroxy-6-methoxy-3-methyl-1,11-dioxo-1,6,7,11-tetrahydro-3H-2,7-methanopyrido[1,2-a][1,4]diazonine-10-carboxamide] registered a CC50 at 5 days in data set [1] of 20000 nM. Further, the pEC50 in data set [2] is 9.42; in data set [4], 8.96. The HLM stability in data set [3] came to 7.83 mL/min/kg.

Turning to `C[C@H]1CC[C@@](O)(CF)[C@H]2CN1C(=O)c1c(O)c(=O)c(C(=O)NCc3c(F)cc(F)cc3F)cn12` [Example 44, (3S,6S,7R)-6-(fluoromethyl)-6,12-dihydroxy-3-methyl-1,11-dioxo-N-(2,4,6-trifluorobenzyl)-1,4,5,6,7,11-hexahydro-3H-2,7-methanopyrido[1,2-a][1,4]diazonine-10-carboxamide], the CC50 at 5 days in data set [1] amounted to 44700 nM. The results for the pEC50 in data set [2] and in data set [4] were 8.72 and 8.40, respectively. Moreover, the HLM stability in data set [3] is 3.67 mL/min/kg.

On to `CO[C@@H]1C=C[C@H](C)N2C[C@H]1n1cc(C(=O)NCc3ccc(F)cc3F)c(=O)c(O)c1C2=O` [Example 7, (3S,6R,7R)—N-(2,4-difluorobenzyl)-12-hydroxy-6-methoxy-3-methyl-1,11-dioxo-1,6,7,11-tetrahydro-3H-2,7-methanopyrido[1,2-a][1,4]diazonine-10-carboxamide], for which it took 9910 nM to reach half-maximal cytotoxicity in data set [1] (CC50 at 5 days). Further, the pEC50 in data set [2] was 9.54. Besides, in data set [3], the “MS Cl improvement” value is 2.0 times relative to compound E and the HLM stability stood at 3.33 mL/min/kg. For the same compound, the pEC50 in data set [4] was 8.92.
